US20030186892A1, “Enhancement of endogenous gonadotropin production” (priority 2002, published 2003)

Experiments:
testosterone = settings: 5 mg b.i.d. (Group B) compared with 10 mg q.d. (Group C), oral
Experimental: Twenty subjects were assigned to each dosing group. Dosing groups were dosed sequentially, beginning with 5 mg q.d. group (Group A). Dosing for the 5 mg b.i.d. group (Group B) commenced 2 weeks after the initiation of Group A and the dosing for the 10 mg q.d. group (Group C) began 2 weeks after initiation of the 5 mg b.i.d. group. […] For all measurements, the final value obtained before the start of the study drug administration was used as the baseline value for that variable.

[1] = in vivo
Experimental: A study was conducted to determine the bioavailability of leuprolide acetate when it was administered by the sublingual route. The study was conducted in fifteen healthy postmenopausal or surgically sterilized female volunteers. This study was conducted according to a single-dose, fasting, four-period, open-label, randomized design. […] 4.5 mg or a 1 mg subcutaneous dose. […] Five-ml plasma samples were collected by venipuncture prior to the study and at suitable time intervals after dosing. Plasma leuprolide acetate concentrations data was tabulated and the descriptive statistics were computed.

Administered sublingual dose absorbed compared to subcutaneous reference [1]: Approximately 1%
Structure (SMILES): CCNC(=O)[C@@H]1CCCN1C(=O)[C@H](CCCNC(=N)N)NC(=O)[C@H](CC(C)C)NC(=O)[C@@H](CC(C)C)NC(=O)[C@H](Cc1ccc(O)cc1)NC(=O)[C@H](CO)NC(=O)[C@H](Cc1c[nH]c2ccccc12)NC(=O)[C@H](Cc1c[nH]cn1)NC(=O)[C@@H]1CCC(=O)N1 [leuprolide acetate]
Elevation of plasma testosterone, comparison of regimens (testosterone): more significant elevation of plasma testosterone
